Data set [1] in a line: Compound cytotoxicity, XTT-based colorimetric assay. The data set is classed as cell-based. Conditions: human; uninfected MT2 cells, day 4, XTT. In short, it runs like this:
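Run under the antiviral-assay protocol but without virus. Viability was read on day 4 and CC50 values were derived from the readout.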
(Tetrazolium assays rely on reduction of a dye to a coloured formazan, in cell work by metabolically active cells.)

The subject of data set [2] is recombinant NL4-3 virus (Renilla luciferase) in MT-2 cells. The experiment in a line: HIV cell culture assay (antiviral activity, luciferase readout). Conditions: Renilla, NL43. The class given is cell-based. An outline of the steps:
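Antiviral EC50 was derived via the median effect equation from luciferase signal. The signal came from MT-2 cultures infected for 4–5 days with a nef-deleted, Renilla luciferase-expressing NL4-3 reporter virus (made in 293T cells) in the presence of compound dilutions.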

One may read the CC50 as the concentration that lowers cell viability or growth by half. Lower therefore signals greater toxicity to the cells. Broadly, the EC50 is the concentration that produces a half-maximal response. Regarding `Cc1cc(-c2ccc3c(=O)n(-c4ccc(Cl)c5c(NS(C)(=O)=O)nn(C)c45)c([C@H](Cc4cc(F)cc(F)c4)NC(=O)Cn4nc(C(F)F)c5c4C(F)(F)[C@@H]4C[C@H]54)nc3c2)nc(C)n1` (atropisomer, axis not shown; (P)) [Example 44, N—((S)-1-((3P)-3-(4-chloro-1-methyl-3-(methylsulfonamido)-1H-indazol-7-yl)-7-(2,6-dimethylpyrimidin-4-yl)-4-oxo-3,4-dihydroquinazolin-2-yl)-2-(3,5-difluorophenyl)ethyl)-2-((3bS,4aR)-3-(difluoromethyl)-5,5-difluoro-3b,4,4a,5-tetrahydro-1H-cyclopropa[3,4]cyclopenta[1,2-c]pyrazol-1-yl)acetamide], the CC50 at 4 days in data set [1] was more than 500 nM. In addition, in data set [2], the EC50 turned out to be 0.04 nM.

The molecule `COc1ccc(-c2ccc3c(=O)n(-c4ccc(Cl)c5c(NS(C)(=O)=O)nn(C)c45)c([C@H](Cc4cc(F)cc(F)c4)NC(=O)Cn4nc(C(F)F)c5c4C(F)(F)[C@@H]4C[C@H]54)nc3c2)nc1` (atropisomer, axis not shown; (P)) [Example 45, N—((S)-1-((3P)-3-(4-chloro-1-methyl-3-(methylsulfonamido)-1H-indazol-7-yl)-7-(5-methoxypyridin-2-yl)-4-oxo-3,4-dihydroquinazolin-2-yl)-2-(3,5-difluorophenyl)ethyl)-2-((3bS,4aR)-3-(difluoromethyl)-5,5-difluoro-3b,4,4a,5-tetrahydro-1H-cyclopropa[3,4]cyclopenta[1,2-c]pyrazol-1-yl)acetamide] returned a CC50 at 4 days in data set [1] of more than 500 nM. Besides, the EC50 in data set [2] was 0.1 nM.

For `CC(C)c1cccc(-c2ccc3c(=O)n(-c4ccc(Cl)c5c(NS(C)(=O)=O)nn(C)c45)c([C@H](Cc4cc(F)cc(F)c4)NC(=O)Cn4nc(C(F)F)c5c4C(F)(F)[C@@H]4C[C@H]54)nc3c2)n1` (atropisomer, axis not shown; (P)) [Example 46, N—((S)-1-((3P)-3-(4-chloro-1-methyl-3-(methylsulfonamido)-1H-indazol-7-yl)-7-(6-isopropylpyridin-2-yl)-4-oxo-3,4-dihydroquinazolin-2-yl)-2-(3,5-difluorophenyl)ethyl)-2-((3bS,4aR)-3-(difluoromethyl)-5,5-difluoro-3b,4,4a,5-tetrahydro-1H-cyclopropa[3,4]cyclopenta[1,2-c]pyrazol-1-yl)acetamide], the CC50 at 4 days in data set [1] was more than 500 nM. The EC50 in data set [2] amounted to 0.23 nM.

`Cn1nc(NS(C)(=O)=O)c2c(Cl)ccc(-n3c([C@H](Cc4cc(F)cc(F)c4)NC(=O)Cn4nc(C(F)F)c5c4C(F)(F)[C@@H]4C[C@H]54)nc4cc(-c5nccc(C(C)(C)C)n5)ccc4c3=O)c21` (atropisomer, axis not shown; (P)) [Example 47, N—((S)-1-(7-(4-(tert-butyl)pyrimidin-2-yl)-(3P)-3-(4-chloro-1-methyl-3-(methylsulfonamido)-1H-indazol-7-yl)-4-oxo-3,4-dihydroquinazolin-2-yl)-2-(3,5-difluorophenyl)ethyl)-2-((3bS,4aR)-3-(difluoromethyl)-5,5-difluoro-3b,4,4a,5-tetrahydro-1H-cyclopropa[3,4]cyclopenta[1,2-c]pyrazol-1-yl)acetamide] displayed a CC50 at 4 days in data set [1] of more than 500 nM. Also, the concentration giving a half-maximal response (EC50) in data set [2] was determined as 0.19 nM.

For `Cc1cc(C(F)(F)F)cc(-c2ccc3c(=O)n(-c4ccc(Cl)c5c(NS(C)(=O)=O)nn(C)c45)c([C@H](Cc4cc(F)cc(F)c4)NC(=O)Cn4nc(C(F)F)c5c4C(F)(F)[C@@H]4C[C@H]54)nc3c2)n1` (atropisomer, axis not shown; (P)) [Example 48, N—((S)-1-((3P)-3-(4-chloro-1-methyl-3-(methylsulfonamido)-1H-indazol-7-yl)-7-(6-methyl-4-(trifluoromethyl)pyridin-2-yl)-4-oxo-3,4-dihydroquinazolin-2-yl)-2-(3,5-difluorophenyl)ethyl)-2-((3bS,4aR)-3-(difluoromethyl)-5,5-difluoro-3b,4,4a,5-tetrahydro-1H-cyclopropa[3,4]cyclopenta[1,2-c]pyrazol-1-yl)acetamide], in data set [1], the CC50 at 4 days is more than 500 nM. The EC50 in data set [2] came to 0.5 nM.

Turning to `Cn1nc(NS(C)(=O)=O)c2c(Cl)ccc(-n3c([C@H](Cc4cc(F)cc(F)c4)NC(=O)Cn4nc(C(F)F)c5c4C(F)(F)[C@@H]4C[C@H]54)nc4cc(-c5cccnn5)ccc4c3=O)c21` (atropisomer, axis not shown; (P)) [Example 49, N—((S)-1-((3P)-3-(4-chloro-1-methyl-3-(methylsulfonamido)-1H-indazol-7-yl)-4-oxo-7-(pyridazin-3-yl)-3,4-dihydroquinazolin-2-yl)-2-(3,5-difluorophenyl)ethyl)-2-((3bS,4aR)-3-(difluoromethyl)-5,5-difluoro-3b,4,4a,5-tetrahydro-1H-cyclopropa[3,4]cyclopenta[1,2-c]pyrazol-1-yl)acetamide], the CC50 at 4 days in data set [1] was more than 500 nM. For the same molecule, the EC50 in data set [2] was determined as 0.071 nM.

As for `Cc1ccc(-c2ccc3c(=O)n(-c4ccc(Cl)c5c(NS(C)(=O)=O)nn(C)c45)c([C@H](Cc4cc(F)cc(F)c4)NC(=O)Cn4nc(C(F)F)c5c4C(F)(F)[C@@H]4C[C@H]54)nc3c2)nn1` (atropisomer, axis not shown; (P)) [Example 50, N—((S)-1-((3P)-3-(4-chloro-1-methyl-3-(methylsulfonamido)-1H-indazol-7-yl)-7-(6-methylpyridazin-3-yl)-4-oxo-3,4-dihydroquinazolin-2-yl)-2-(3,5-difluorophenyl)ethyl)-2-((3bS,4aR)-3-(difluoromethyl)-5,5-difluoro-3b,4,4a,5-tetrahydro-1H-cyclopropa[3,4]cyclopenta[1,2-c]pyrazol-1-yl)acetamide], the CC50 at 4 days in data set [1] was more than 500 nM. Also, the EC50 in data set [2] was 0.047 nM.

Consider `Cc1ccnnc1-c1ccc2c(=O)n(-c3ccc(Cl)c4c(NS(C)(=O)=O)nn(C)c34)c([C@H](Cc3cc(F)cc(F)c3)NC(=O)Cn3nc(C(F)F)c4c3C(F)(F)[C@@H]3C[C@H]43)nc2c1` (atropisomer, axis not shown; (P)) [Example 51, N—((S)-1-((3P)-3-(4-chloro-1-methyl-3-(methylsulfonamido)-1H-indazol-7-yl)-7-(4-methylpyridazin-3-yl)-4-oxo-3,4-dihydroquinazolin-2-yl)-2-(3,5-difluorophenyl)ethyl)-2-((3bS,4aR)-3-(difluoromethyl)-5,5-difluoro-3b,4,4a,5-tetrahydro-1H-cyclopropa[3,4]cyclopenta[1,2-c]pyrazol-1-yl)acetamide], for which the CC50 at 4 days in data set [1] is more than 500 nM. For the same molecule, in data set [2], the EC50 stood at 0.14 nM.

As to `Cc1cc(C)c(C(F)(F)F)c(-c2ccc3c(=O)n(-c4ccc(Cl)c5c(NS(C)(=O)=O)nn(C)c45)c([C@H](Cc4cc(F)cc(F)c4)NC(=O)Cn4nc(C(F)F)c5c4C(F)(F)[C@@H]4C[C@H]54)nc3c2)n1` (atropisomer, axis not shown; (P)) [Example 52, N—((S)-1-((3P)-3-(4-chloro-1-methyl-3-(methylsulfonamido)-1H-indazol-7-yl)-7-(4,6-dimethyl-3-(trifluoromethyl)pyridin-2-yl)-4-oxo-3,4-dihydroquinazolin-2-yl)-2-(3,5-difluorophenyl)ethyl)-2-((3bS,4aR)-3-(difluoromethyl)-5,5-difluoro-3b,4,4a,5-tetrahydro-1H-cyclopropa[3,4]cyclopenta[1,2-c]pyrazol-1-yl)acetamide], the CC50 at 4 days in data set [1] was more than 500 nM. Besides, the EC50 in data set [2] turned out to be 0.48 nM.

`COc1cc(C(F)(F)F)nc(-c2ccc3c(=O)n(-c4ccc(Cl)c5c(NS(C)(=O)=O)nn(C)c45)c([C@H](Cc4cc(F)cc(F)c4)NC(=O)Cn4nc(C(F)F)c5c4C(F)(F)[C@@H]4C[C@H]54)nc3c2)n1` (atropisomer, axis not shown; (P)) [Example 54, N—((S)-1-((3P)-3-(4-chloro-1-methyl-3-(methylsulfonamido)-1H-indazol-7-yl)-7-(4-methoxy-6-(trifluoromethyl)pyrimidin-2-yl)-4-oxo-3,4-dihydroquinazolin-2-yl)-2-(3,5-difluorophenyl)ethyl)-2-((3bS,4aR)-3-(difluoromethyl)-5,5-difluoro-3b,4,4a,5-tetrahydro-1H-cyclopropa[3,4]cyclopenta[1,2-c]pyrazol-1-yl)acetamide] returned a CC50 at 4 days in data set [1] of more than 500 nM. In data set [2], the EC50 was 0.31 nM.

In the case of `Cc1nnc(-c2ccc3c(=O)n(-c4ccc(Cl)c5c(NS(C)(=O)=O)nn(C)c45)c([C@H](Cc4cc(F)cc(F)c4)NC(=O)Cn4nc(C(F)F)c5c4C(F)(F)[C@@H]4C[C@H]54)nc3c2)nc1C` (atropisomer, axis not shown; (P)) [Example 55, N—((S)-1-((3P)-3-(4-chloro-1-methyl-3-(methylsulfonamido)-1H-indazol-7-yl)-7-(5,6-dimethyl-1,2,4-triazin-3-yl)-4-oxo-3,4-dihydroquinazolin-2-yl)-2-(3,5-difluorophenyl)ethyl)-2-((3bS,4aR)-3-(difluoromethyl)-5,5-difluoro-3b,4,4a,5-tetrahydro-1H-cyclopropa[3,4]cyclopenta[1,2-c]pyrazol-1-yl)acetamide], the CC50 at 4 days in data set [1] is more than 500 nM. In addition, the EC50 in data set [2] was 0.032 nM.

In data set [1], `Cn1nc(NS(C)(=O)=O)c2c(Cl)ccc(-n3c([C@H](Cc4cc(F)cc(F)c4)NC(=O)Cn4nc(C(F)F)c5c4C(F)(F)[C@@H]4C[C@H]54)nc4cc(-c5nccc(C(F)F)n5)ccc4c3=O)c21` (atropisomer, axis not shown; (P)) [Example 56, N—((S)-1-((3P)-3-(4-chloro-1-methyl-3-(methylsulfonamido)-1H-indazol-7-yl)-7-(4-(difluoromethyl)pyrimidin-2-yl)-4-oxo-3,4-dihydroquinazolin-2-yl)-2-(3,5-difluorophenyl)ethyl)-2-((3bS,4aR)-3-(difluoromethyl)-5,5-difluoro-3b,4,4a,5-tetrahydro-1H-cyclopropa[3,4]cyclopenta[1,2-c]pyrazol-1-yl)acetamide] returned a CC50 at 4 days of more than 500 nM. The EC50 in data set [2] is 0.056 nM.

The values above are taken from US11541055B2, “Inhibitors of human immunodeficiency virus replication” (ViiV Healthcare UK (No. 5) LIMITED, priority 2018, dated 2023).
